{"source": "patent US11047012B2", "about": "“Method for detecting the risk and prognosis of adult-onset Still's disease” (Taichung Veterans General Hospital, priority 2018, dated 2021)", "key": {"THP-1 cells": {"test_system": "THP-1 cells", "assay": "poly (I:C) stimulation of THP-1 cells, miR-134 expression", "assay_type": "cell-based, human", "conditions": "24 hours after stimulation, FIG. 5B", "experimental": "(§1) The miRNA expressions in a sample were detected using the TaqMan MicroRNA detection kit (Applied Biosystems, Thermo Fisher Scientific, USA) and QRT-PCR was performed in the StepOne Plus real-time PCR system. Small nuclear RNA (hereinafter referred to as RUN6) and synthetic cel-miR-39 (hereinafter referred to as cel-miR-39 cel-miR-39) were respectively used as an internal control gene in cells and plasma. The multiple expression of the target gene was obtained by calculating the average expression of the target gene relative to the internal control gene in the sample by comparative threshold cycle (Ct) method, and evaluated by 2^−ΔΔCt, where ΔΔCt is the (CtmiRNAsgene−CtRnu6/cel-miR-39) of the patient from which the average (CtmiRNAs gene−CtRnu6/cel-miR-39) of the internal control gene is subtracted.\n(§2) Peripheral blood mononuclear cells, human monocyte cell line U937 (ATCC CRL1593, hereinafter referred to as U937 cell) and THP-1 cells (ATCC TIB-202) isolated from the subject were respectively cultured in RPMI medium 1640 (Gibco, Thermo Fisher Scientific, USA) supplemented with 10% fetal bovine serum, 1× non-essential amino acids, 100 unit/ml penicillin and 100 unit/ml streptomycin in 5% carbon dioxide at 37° C.\nFurther, the THP-1 cells were treated with the TLR3 ligand poly (I:C)."}, "[1]": {"test_system": "peripheral blood mononuclear cells derived from the patients with AOSD", "assay": "TLR ligand stimulation of peripheral blood mononuclear cells, intracellular miR-134 by QRT-PCR", "assay_type": "cell-based, human", "experimental": "as §1, §2\nPeripheral blood mononuclear cells (5×10^5 cells) derived from the subjects were stimulated with different TLR ligands. Finally, the intracellular expression level of miR-134 was measured with the TaqMan MicroRNA test kit.\nFollowing the process as described in Example 8, the intracellular expressions of miR-134 and IL-18BP mRNA in the TLR3 ligand-stimulated peripheral blood mononuclear cells derived from patients with AOSD and healthy subjects were detected. The correlation between the IL-18BP and IL-18 expressions and the miR-134 expression was analyzed."}}}
{"substance": "polyriboinosinic:polyribocytidylic acid [poly(I:C)]", "values": [{"measurement": "expression of miR-134 (highest value)", "setting": "THP-1 cells", "value": "1.92±0.11", "unit": "folds"}, {"measurement": "miR-134 expression level in the cells", "setting": "[1]; PBMC from patients with AOSD, TLR3 ligand poly(I:C) 50 μg/ml, FIG. 5A", "value": "3.81±0.09", "unit": "folds"}, {"measurement": "expression level of miR-134", "setting": "[1]; TLR3 ligand-stimulated PBMC from patients with AOSD, FIG. 10A", "value": "increased"}, {"measurement": "expression level of IL-18BP mRNA", "setting": "[1]; TLR3 ligand-stimulated PBMC from patients with AOSD, FIG. 10B", "value": "reduced"}]}
